Assay results published in US4261977A, “Streptomycetal antibiotic” (Beecham Group Limited, priority 1975, dated 1981).
Where a name gives a salt, the structure may show the parent alone.

Tests used:
[1] = test system: gram-positive and gram-negative organisms; test: Antibacterial activity determined by the microtiter method (general statement); assay type: cell-based; conditions: substantially pure di-sodium salt, certain gram-positive and gram-negative organisms
[2] = test system: β-lactamase producing strains of Staphylococcus aureus and Klebsiella aerogenes; test: Synergy with β-lactam antibiotics (general statement); assay type: cell-based; conditions: substantially pure di-sodium salt; with ampicillin, amoxycillin and the like; certain bacteria
Klebsiella aerogenes = test: Activity by conventional hole in plate method on agar; assay type: cell-based; conditions: yellow solid after cellulose chromatography; arbitrary units
Procedure: 300 ml. of 10% Pluronic L81 in soya-bean oil was added to prevent foaming. The fermentation was harvested after 48 hours and clarified by centrifugation. The clarified brew was arbitarily assigned an activity of 340 units/ml when assayed by the conventional hole in plate method on agar seeded with Klebsiella aerogenes.

Proteus morganii I580 = test: Antibacterial activity, microtitre method (Table 2); assay type: cell-based; conditions: heavy inoculum
Procedure: (§1) The antibacterial activity of the material produced as above was determined by the microtitre method using the overnight inoculum of the test organism at 0.2% concentration. The synergistic activity of the di-sodium salt of MM 17880 in combination with ampicillin and with cephaloridine against Klebsiella aerogenes and Staphylococcus aureus Russell are shown in Table 3.
(§2) Microtitre heavy inoculum

Streptococcus faecalis I = test: as above; assay type: cell-based; conditions: heavy inoculum
Procedure: as §1, §2

[3] = test system: Streptococcus pyogenes CN10; test: as above; assay type: cell-based; conditions: heavy inoculum
Procedure: as §1, §2

[4] = Stability of salts and unsalted acid; assay type: physicochemical; conditions: salts compared with unsalted acid; in solution

Row | MIC (Proteus morganii I580) | MIC (Streptococcus faecalis I) | MIC [3] | stability [4] | Compound | antibacterial activity [1] | synergy with β-lactam antibiotics [2] | activity (Klebsiella aerogenes)
1 |  |  |  |  | CC(=O)NCCSC1=C(C(=O)O)N2C(=O)C(C(C)OS(=O)(=O)O)C2C1 (stereo not shown) [di-sodium salt of MM 17880] | good level of antibacterial activity | able to synergyse the anti-bacterial activity of β-lactam antibiotics | 16,000 units/mg
2 | 1.6 µg/mL | 6.2 µg/mL | < 0.04 µg/mL | tends to decompose in solution | CC(=O)NCCSC1=C(C(=O)O)N2C(=O)C(C(C)OS(=O)(=O)O)C2C1 (stereo not shown) [MM 17880] |  |  | 
